Experimental data: patent US6737383B1, “Herbicidal oxadiazolidines” (priority 1999, dated 2004)

Assays:
rice = assay: Test B flood test rice; assay type: in vivo, Oryza sativa
Method in brief: (§1)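 Read-out is a visual response score from 0 (no effect) to 10 (complete control), assigned by comparison with untreated controls. Treatment was applied at the 2-leaf stage, and plants stayed in the greenhouse for twelve to sixteen days before scoring.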

morningglory = assay: Test B pre/postemergence morningglory; assay type: in vivo, Ipomoea hederacea
Method in brief: (§2)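 Test chemicals in a non-phytotoxic solvent mixture with surfactant were sprayed preemergence onto planted seeds and postemergence onto plants 2 to 18 cm tall (1- to 4-leaf stage). After twelve to sixteen days in a greenhouse, injury was visually rated against untreated controls from 0 (no effect) to 10 (complete control).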

wheat = assay: Test B pre/postemergence wheat; assay type: in vivo, Triticum aestivum
Method in brief: as §2

crabgrass = assay: Test B pre/postemergence crabgrass; assay type: in vivo, Digitaria sanguinalis
Method in brief: as §2

bamyardgrass = assay: Test B flood test barnyardgrass; assay type: in vivo, Echinochloa crus-galli
Method in brief: as §1

bedstraw = assay: Test B pre/postemergence bedstraw; assay type: in vivo, Galium aparine
Method in brief: as §2

duck salad = assay: Test B flood test duck salad; assay type: in vivo, Heteranthera limosa
Method in brief: as §1

purple nutsedge = assay: Test B pre/postemergence purple nutsedge; assay type: in vivo, Cyperus rotundus
Method in brief: as §2

blackgrass = assay: Test B pre/postemergence blackgrass; assay type: in vivo, Alopecurus myosuroides
Method in brief: as §2

cocklebur = assay: Test B pre/postemergence cocklebur; assay type: in vivo, Xanthium strumarium
Method in brief: as §2

corn = assay: Test B pre/postemergence corn; assay type: in vivo, Zea mays
Method in brief: as §2

surinam grass = assay: Test B pre/postemergence surinam grass; assay type: in vivo, Brachiaria decumbens
Method in brief: as §2

smallflower flatsedge = assay: Test B flood test smallflower flatsedge; assay type: in vivo, Cyperus difformis
Method in brief: as §1

wild oat = assay: Test B pre/postemergence wild oat; assay type: in vivo, Avena fatua
Method in brief: as §2

giant foxtail = assay: Test B pre/postemergence giant foxtail; assay type: in vivo, Setaria faberii
Method in brief: as §2

soybean = assay: Test B pre/postemergence soybean; assay type: in vivo, Glycine max
Method in brief: as §2

velvetleaf = assay: Test B pre/postemergence velvetleaf; assay type: in vivo, Abutilon theophrasti
Method in brief: as §2

[1] = Postemergence (flood test species), Rate 125 g/ha, scale of 0 to 10 where 0 is no effect and 10 is complete control
[2] = Postemergence, Rate 62 g/ha, scale 0 to 10, 0 is no effect, 10 is complete control
[3] = Rate 250 g/ha, Postemergence (flood test), scale 0 to 10, 0 is no effect, 10 is complete control
[4] = Rate 500 g/ha, listed under Postemergence (flood test species), scale 0 to 10, 0 no effect, 10 complete control
[5] = Postemergence, Rate 125 g/ha, scale of 0 to 10 where 0 is no effect and 10 is complete control
[6] = Postemergence, Rate 250 g/ha, scale 0 to 10, 0 no effect, 10 complete control
[7] = Preemergence, Rate 62 g/ha, scale 0 to 10 (0 no effect, 10 complete control)
[8] = Preemergence, Rate 125 g/ha, scale 0 to 10 (0 no effect, 10 complete control)
[9] = Preemergence, Rate 250 g/ha, scale of 0 to 10 where 0 is no effect and 10 is complete control
[10] = Preemergence, Rate 500 g/ha, scale 0 (no effect) to 10 (complete control)
[11] = Rate 500 g/ha, Postemergence, scale 0 to 10, 0 no effect, 10 complete control
[12] = Rate 250 g/ha, Postemergence, scale 0 to 10, 0 is no effect, 10 is complete control
[13] = flood test, listed under Postemergence, Rate 250 g/ha, scale 0 to 10, 0 no effect, 10 complete control
[14] = Rate 125 g/ha, Postemergence, scale 0 to 10, 0 no effect, 10 complete control

SMILES: CCN(CC)C(=O)n1oc(=O)n(-c2cccc3c2CCCC3)c1=O [Compound 89]
- Rice plant response rating (rice; [1]): 0
- Rice plant response rating (rice; [2]): 0
- Plant response rating, Rice (rice; [3]): 0
- Rice plant response rating (rice; [4]): 0
- Morningglory plant response rating (morningglory; [2]): 0
- Morningglory plant response rating (morningglory; [5]): 0
- Morningglory plant response rating (morningglory; [6]): 0
- Morningglory plant response rating (morningglory; [7]): 0
- Plant response rating, Morningglory (morningglory; [8]): 0
- Plant response rating, Morningglory (morningglory; [9]): 0
- Morningglory plant response rating (morningglory; [10]): 0
- Morningglory plant response rating (morningglory; [11]): 2
- Wheat plant response rating (wheat; [2]): 0
- Wheat plant response rating (wheat; [5]): 0
- Wheat plant response rating (wheat; [7]): 0
- Plant response rating, Wheat (wheat; [8]): 0
- Plant response rating, Wheat (wheat; [9]): 0
- Wheat plant response rating (wheat; [10]): 0
- Plant response rating, Wheat (wheat; [12]): 0
- Wheat plant response rating (wheat; [11]): 0
- Crabgrass plant response rating (crabgrass; [2]): 0
- Crabgrass plant response rating (crabgrass; [5]): 0
- Crabgrass plant response rating (crabgrass; [6]): 0
- Crabgrass plant response rating (crabgrass; [7]): 0
- Plant response rating, Crabgrass (crabgrass; [8]): 0
- Plant response rating, Crabgrass (crabgrass; [9]): 0
- Crabgrass plant response rating (crabgrass; [10]): 2
- Crabgrass plant response rating (crabgrass; [11]): 2
- Barnyardgrass plant response rating (bamyardgrass; [2]): 0
- Barnyardgrass plant response rating (bamyardgrass; Rate 125 g/ha, Postemergence section (flood test species), scale 0 to 10, 0 no effect, 10 complete control): 0
- Barnyardgrass plant response rating (bamyardgrass; [4]): 0
- Barnyardgrass plant response rating (bamyardgrass; [13]): 0
- Bedstraw plant response rating (bedstraw; [2]): 0
- Bedstraw plant response rating (bedstraw; [6]): 0
- Bedstraw plant response rating (bedstraw; [7]): 0
- Plant response rating, Bedstraw (bedstraw; [8]): 0
- Plant response rating, Bedstraw (bedstraw; [9]): 0
- Bedstraw plant response rating (bedstraw; [10]): 0
- Bedstraw plant response rating (bedstraw; [14]): 0
- Bedstraw plant response rating (bedstraw; [11]): 3
- Ducksalad plant response rating (duck salad; [1]): 0
- Ducksalad plant response rating (duck salad; [2]): 0
- Ducksalad plant response rating (duck salad; [4]): 0
- Ducksalad plant response rating (duck salad; [13]): 0
- Nutsedge plant response rating (purple nutsedge; [2]): 0
- Nutsedge plant response rating (purple nutsedge; [5]): 0
- Nutsedge plant response rating (purple nutsedge; [6]): 0
- Nutsedge plant response rating (purple nutsedge; [7]): 0
- Plant response rating, Nutsedge (purple nutsedge; [8]): 0
- Plant response rating, Nutsedge (purple nutsedge; [9]): 0
- Nutsedge plant response rating (purple nutsedge; [10]): 0
- Nutsedge plant response rating (purple nutsedge; [11]): 0
- Blackgrass plant response rating (blackgrass; [2]): 0
- Blackgrass plant response rating (blackgrass; [5]): 0
- Blackgrass plant response rating (blackgrass; [6]): 0
- Blackgrass plant response rating (blackgrass; [7]): 0
- Plant response rating, Blackgrass (blackgrass; [8]): 0
- Plant response rating, Blackgrass (blackgrass; [9]): 0
- Blackgrass plant response rating (blackgrass; [10]): 0
- Blackgrass plant response rating (blackgrass; [11]): 0
- Cocklebur plant response rating (cocklebur; [2]): 1
- Cocklebur plant response rating (cocklebur; [5]): 1
- Cocklebur plant response rating (cocklebur; [6]): 2
- Cocklebur plant response rating (cocklebur; [7]): 0
- Plant response rating, Cocklebur (cocklebur; [8]): 0
- Plant response rating, Cocklebur (cocklebur; [9]): 0
- Cocklebur plant response rating (cocklebur; [10]): 0
- Cocklebur plant response rating (cocklebur; [11]): 2
- Corn plant response rating (corn; [2]): 0
- Corn plant response rating (corn; [5]): 0
- Corn plant response rating (corn; [6]): 0
- Corn plant response rating (corn; [7]): 0
- Plant response rating, Corn (corn; [8]): 0
- Plant response rating, Corn (corn; [9]): 0
- Corn plant response rating (corn; [10]): 0
- Corn plant response rating (corn; [11]): 1
- B. signalgrass plant response rating (surinam grass; [2]): 0
- B. signalgrass plant response rating (surinam grass; [6]): 0
- B. signalgrass plant response rating (surinam grass; [7]): 0
- Plant response rating, B. signalgrass (surinam grass; [8]): 0
- Plant response rating, B. signalgrass (surinam grass; [9]): 0
- B. signalgrass plant response rating (surinam grass; [10]): 0
- B. signalgrass plant response rating (surinam grass; [14]): 0
- B. signalgrass plant response rating (surinam grass; Rate 500 g/ha, Postemergence, scale of 0 to 10 where 0 is no effect and 10 is complete control): 0
- S. Flatsedge plant response rating (smallflower flatsedge; [1]): 0
- S. Flatsedge plant response rating (smallflower flatsedge; [2]): 0
- Plant response rating, S. Flatsedge (smallflower flatsedge; [3]): 0
- S. Flatsedge plant response rating (smallflower flatsedge; [4]): 0
- Wild oats plant response rating (wild oat; [2]): 0
- Wild oats plant response rating (wild oat; [5]): 0
- Wild oats plant response rating (wild oat; [7]): 0
- Plant response rating, Wild oats (wild oat; [8]): 0
- Plant response rating, Wild oats (wild oat; [9]): 0
- Wild oats plant response rating (wild oat; [10]): 0
- Plant response rating, Wild oats (wild oat; [12]): 0
- Wild oats plant response rating (wild oat; [11]): 0
- Giant foxtail plant response rating (giant foxtail; [2]): 0
- Giant foxtail plant response rating (giant foxtail; [5]): 0
- Giant foxtail plant response rating (giant foxtail; [6]): 0
- Giant foxtail plant response rating (giant foxtail; [7]): 0
- Plant response rating, Giant foxtail (giant foxtail; [8]): 0
- Plant response rating, Giant foxtail (giant foxtail; [9]): 0
- Giant foxtail plant response rating (giant foxtail; [10]): 2
- Giant foxtail plant response rating (giant foxtail; [11]): 2
- Soybean plant response rating (soybean; [2]): 0
- Soybean plant response rating (soybean; [5]): 0
- Soybean plant response rating (soybean; [7]): 0
- Plant response rating, Soybean (soybean; [8]): 0
- Plant response rating, Soybean (soybean; [9]): 0
- Soybean plant response rating (soybean; [10]): 0
- Plant response rating, Soybean (soybean; [12]): 0
- Soybean plant response rating (soybean; [11]): 1
- Velvetleaf plant response rating (velvetleaf; [2]): 0
- Velvetleaf plant response rating (velvetleaf; [5]): 0
- Velvetleaf plant response rating (velvetleaf; [7]): 0
- Plant response rating, Velvetleaf (velvetleaf; [8]): 0
- Plant response rating, Velvetleaf (velvetleaf; [9]): 0
- Velvetleaf plant response rating (velvetleaf; [10]): 0
- Plant response rating, Velvetleaf (velvetleaf; [12]): 0
- Velvetleaf plant response rating (velvetleaf; [11]): 3
